Legend:
[1] = UVA and UVB sunscreen activity, spectrophotometric study; format: physicochemical; details: extract titrated to 5% umbelliferone, Parsol MCX as comparison
[2] = Anti-radical activity on radical propagation (hydroxyl radicals), evaluated on DPHH; details: extract containing 5% umbelliferone; vitamin E as comparison
Method: Evaluation of the anti-radical activity
disappearance of the free radicals. Free radical traps act on the superoxide anion O2^- but also on the hydroxyl radicals. Thus, we have sought to evaluate the anti-radical activity on these two steps.
The activity on radical propagation, and thus on the hydroxyl radicals, is evaluated on DPHH, diphenyl-picrylhydrazyl hydrate, which is a stable, colored free radical.

Row | specific extension coefficient at 310 nm [1] | IC50 on DPHH (radical propagation, hydroxyl radicals) [2] | Molecule
1 | 810 |  | CCCCC(CC)COC(=O)C=Cc1ccc(OC)cc1 (centres unmarked) [Parsol MCX]
2 |  | 6 µg/mL | vitamin E
